Reference: patent publication US20140271667A1, “Methods and Compositions for Neoadjuvant Therapy” (The Wistar Institute of Anatomy and Biology, priority 2013, published 2014)

Key:
LN229 spheroids = assay: Tumor cell invasion in 3D organotypic spheroids embedded in collagen; assay type: cell-based, human; settings: LN229 spheroids in collagen matrix; Gamitrinib 1.25-2.5 μM; 72 h
Experimental: (§1) For cell migration experiments using a wound closure assay, confluent monolayers of MRC-5 cells were incubated with vehicle or Gamitrinib (5-10 μM), and wounded using a 10 μl pipette tip. Three micrographs/well were obtained at time=0, 16 and 24 h after wounding, and the percentage of wound closure was normalized to the maximum initial area for each well. For analysis of tumor cell invasion in 3D organotypic spheroids, tumor cells (5×10^4) were seeded onto 96-well plates coated with 1.5% agar (Difco Noble Agar) in PBS, pH 7.4. Spheroids were allowed to form over a 72 h period and then embedded in […] of bovine collagen type I (Organogenesis) in 24-well plates. Spheroids were overlaid with 1 ml of growth medium, treated with various concentrations of Gamitrinib for 72 h, and analyzed for changes in maximum invasion distance and invasion area. Quantification of live vs. dead cells under the various conditions tested was performed by staining the spheroids with calcein-AM (live, bright cluster) and Topro-3 (dead, dark spots) (Invitrogen) for 2 h. Samples were imaged using a Prairie Ultima II 2-photon microscope (Prairie Technologies, Inc, Middleton, Wis.), and stacks of 100 slices were generated in 2 channels. 3-D reconstruction of the labeled spheroids and analysis of cell staining was carried out using ImagePro Plus 3D software (Media Cybernetics, Silver Spring Md.).

LN229 cells = assay: ATP measurement (luciferin-luciferase); assay type: cell-based, human; settings: Gamitrinib 5-10 μM, concentration-dependent
Experimental: Intracellular ATP concentrations were measured by the luciferin-luciferase method using an ATP measuring kit (Biochain). The ATP concentration in each extract was determined in a microplate luminometer (Beckman Coulter) against standard ATP solutions used as reference.

Rac1 and Cdc42 = assay: Rac1 and Cdc42-GTP pull-down assays; assay type: cell-based, human; settings: serum-starved A549 cells stimulated with EGF or FBS; Gamitrinib 5 μM
Experimental: The activation of Rho family small GTPases, Rac1 or Cdc42 was examined in pull-down assays using the p21-binding domain (PBD, amino acids 70-117) of the p21-activated kinase-1 (Pak1). Briefly, a pGEX TK-Pak1 PBD cDNA (Addgene, Cat. no. #12217) was purified, transformed into BL21 E. coli competent cells (Stratagene), and expressed as recombinant GST fusion protein after induction with 1 mM IPTG for 4 h at 34° C. Cells were suspended in PBS, pH 7.2, in the presence of protease inhibitors (SIGMA), and broken by sonication in 1% Triton X-100 for 30 min at 4° C. Soluble proteins were isolated by chromatography on glutathione Sepharose 4B (GS4B, GE Healthcare), eluted in 3 consecutive steps in buffer containing 10 mM GSH, 50 mM Tris HCl, pH 8.0, and further desalted using Amicon Ultra 4/10K columns (Millipore), for a total of 3 buffer changes to PBS, pH 7.2. The protein was diluted in glycerol, quantified by absorbance at 280 nm, and stored at −80° C. until use. The activity of each batch of recombinant protein was assessed by incubating aliquots of the cell lysate with non-hydrolyzable GTPγS at 0.1 mM (maximum binding) or 1 mM GDP (negative control) in low Mg2+ buffer at 30° C. followed by pull-down (54). […]

[1] = test system: normal human MRC-5 lung fibroblasts; assay: Wound closure assay, normal fibroblasts; assay type: cell-based; settings: Gamitrinib 5-10 μM, 16 or 24 h
Experimental: as §1

Raptor = assay: Western blotting, Raptor phosphorylation; assay type: cell-based, human; settings: PC3; Gamitrinib 5 μM, metformin 5 mM 6 h, 17-AAG 5 μM
Experimental: (§2) Protein lysates were prepared in RIPA buffer containing 150 mM NaCl, 1.0% Triton X-100, 0.5% sodium deoxycholate, 0.1% SDS, 50 mM Tris, pH 8.0, in the presence of EDTA-free protease inhibitor cocktail (Roche) and phosphatase inhibitor cocktail 2 and 3 (Sigma Aldrich). Equal amounts of protein lysates were separated by SDS gel electrophoresis, transferred to PVDF membranes and incubated with primary antibodies of various specificities. Protein bands were detected by chemiluminescence, as described (21).

[2] = test system: p21-activated kinases, Pak-1,2; assay: Western blotting, Pak phosphorylation; assay type: cell-based, human; settings: Gamitrinib 5 μM
Experimental: as §2

PC3 cells = assay: Cell death by Trypan blue exclusion; assay type: cell-based; settings: vs vehicle, Gamitrinib 5 μM, CCCP 12.5 μM, 2-DG 25 mM
Experimental: Tumor cells were plated onto 96-well plates at 3.7×10^3/well and treated with vehicle or Gamitrinib (5 μM). After 24 h, cell viability was assessed with a 3 (4,5-dimethyl-thyazoyl-2-yl)2,5 diphenyltetrazolium bromide (MTT) colorimetric assay (24), or, alternatively, by Trypan blue exclusion and light microscopy. Data were background-subtracted relative to vehicle-treated cultures. In some experiments, tumor cell proliferation was assessed by direct cell counting and light microscopy.

AMPK = assay: Western blotting, AMPK and ACC phosphorylation; assay type: cell-based, human
Experimental: as §2

Src = assay: Western blotting, Src phosphorylation; assay type: cell-based, human; settings: Gamitrinib 5 μM
Experimental: as §2

ULK1 = assay: Western blotting, ULK1 phosphorylation and level; assay type: cell-based, human; settings: PC3
Experimental: as §2

Gamitrinib
invasive length and invasive areas (LN229 spheroids): nearly complete suppression
tumor cell invasion in organotypic spheroids (LN229 spheroids): blocked tumor cell invasion
ATP production in tumor cells (LN229 cells): inhibited ATP production
activation of Rac1 and Cdc42 (GTP-bound) (Rac1 and Cdc42): impaired
migration of normal human fibroblasts in wound closure assay [1]: did not affect migration
Raptor phosphorylation on Ser792 (Raptor): induced strong phosphorylation
Pak-1,2 phosphorylation on Ser199, Ser144 and Ser20 [2]: inhibited the phosphorylation
cell death by Trypan blue exclusion (PC3 cells): did not affect
AMPK phosphorylation during nutrient deprivation (AMPK; LN229, Gamitrinib 5 μM, with or without glucose): increased AMPK phosphorylation
AMPK and ACC phosphorylation (AMPK; PC3, Gamitrinib 5 μM time course, metformin 5 mM 6 h, 17-AAG 5 μM time course): induced early phosphorylation
Src phosphorylation on Tyr416 (Src): inhibited the phosphorylation
ULK1 phosphorylation on Ser555 (ULK1; Gamitrinib 5 μM (within 1-2 h), metformin 5 mM 6 h, 17-AAG 5 μM): phosphorylation of ULK1 on Ser555
ULK1 phosphorylation on Ser757 (ULK1; Gamitrinib 5 μM, metformin 5 mM 6 h, 17-AAG 5 μM): decreased phosphorylation on Ser757
total level of ULK1 (ULK1; time points of the Western blot experiment): not affected
